This passage reports Kd results from paper PMC4655838, “Versatility in phospho-dependent molecular recognition of the XRCC1 and XRCC4 DNA-damage scaffolds by aprataxin-family FHA domains” (DNA Repair, 2015).

What all share (format): binding
One assay addresses T1, aprataxin FHA domain (Homo sapiens, UniProt Q7Z2E3).
T1 construct: aprataxin residues 1–105; GST (pGEX-6P-1) (N, cleaved yes); made in house; host or cells: Escherichia coli BL21 (DE3)
Put plainly: NMR (1H-SOFAST-HMQC) titrations of aprataxin FHA domain with XRCC1 phosphopeptides. Conditions: NMR titration, 22 °C. How it is done: NMR experiments were carried out at 22 °C on Bruker Avance II+ 600 MHz and Avance III 700 MHz spectrometers, each equipped with a cryogenic triple-resonance probe. Protein and peptides were prepared in NMR buffer (20 mM Na Acetate pH 5.8, 50 mM NaCl, 2 mM DTT). Three-dimensional HNCA, HNCO, HNCACB and CBCA(CO)NH experiments were performed to obtain backbone assignments. NMR titration experiments were carried out by adding the unlabelled XRCC1 peptides to ^15N-labeled aprataxin FHA domain. The initial protein concentration was 92 μM and volumes of 2 mM stock solution of peptide were added until the protein:peptide ratio was 1:4. ^1H-SOFAST-HMQC [36] spectra were measured after each titration step. All spectra were processed using nmrPipe, and analysed using CARA/NEASY [38]. The weighted chemical shift change (in ppm units) of each amide proton (ΔδHN) and nitrogen (ΔδN) was calculated according to the equation: Δδtotal = [(ΔδHNWHN)^2 + (ΔδNWN)^2]^1/2 with WHN = 1 and WN = 0.154 [39]. Weighted chemical shifts for residues D37, V45, Q46, V61 and V63 were plotted against peptide concentration to determine individual Kds and averaged to determine the apparent Kd.

Assay [1] deals with T2, wild-type aprataxin FHA domain (Homo sapiens, UniProt Q7Z2E3).
T2 construct: aprataxin residues 1–105; GST (pGEX-6P-1) (N, cleaved yes); made in house; host or cells: Escherichia coli BL21 (DE3)
T2 sequence (Q7Z2E3 15-119): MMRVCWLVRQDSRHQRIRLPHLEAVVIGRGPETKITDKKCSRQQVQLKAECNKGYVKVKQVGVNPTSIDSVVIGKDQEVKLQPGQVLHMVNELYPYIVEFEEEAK
Put plainly: ITC of wild-type aprataxin FHA domain with XRCC1 and XRCC4 phosphopeptides. Conditions: 22 °C, 50 mM HEPES pH 7.5, 150 mM NaCl, 5 mM β-mercaptoethanol, peptide in syringe, XRCC1 peptides 1 mM into 100 μM protein, XRCC4 peptides 300 μM into 30 μM protein, single-site model, representative of triplicate. From the text: (§1) The genes for aprataxin residues 1–105 and APLF residues 1–106 were amplified using primer sets which incorporated 5′ BamHI and 3′ XhoI sites. PCR products and pGEX-6P-1 vector were digested with BamHI and XhoI and religated. All point mutations were generated using a QuickChange Site-Directed Mutagenesis Kit (Stratagene) following the manufacturer's recommended protocol.
(§2) For expression, the pGEX-6P-1/aprataxin-FHA constructs were transformed into Escherichia coli strain BL21 (DE3) and the pGEX-6P-1/APLF-FHA constructs transformed into the strain Rosetta2 (DE3). Cells were grown in LB at 37 °C to an A600 of 0.5, induced with 0.4 mM isopropyl 1-thio-β-D-galactopyranoside and incubated at 18 °C for a further 16 h before harvesting. Cells were lysed by sonication and clarified by centrifugation (20,000 × g × 30 min). The supernatant was applied to a glutathione-4B resin (Amersham) and cleaved from the resin with rhinovirus 3C protease. Proteins were purified further by gel-filtration chromatography on a Superdex 75 matrix in 20 mM Tris pH 7.5, 150 mM NaCl, 5 mM DTT. Selenomethionine-labelled APLF L91 M protein was expressed in Rosetta2 (DE3) cells cultured in SelenoMet base media and nutrients supplemented with seleno-methionine solution (Molecular Dimensions Ltd.) and purified as the wild-type protein.
(§3) Phosphopeptides based on the XRCC1 sequence 515-YAGSTDENTDSEEHQ-529 and the XRCC4 sequence 229-YDESTDEES-237 were synthesised with amidated C-termini to avoid potential end-effects of a free carboxy-terminus by Dr. W. Mawby (University of Bristol), purified by HPLC and characterised by mass spectrometry. FHA-phosphopeptide binding was quantified by isothermal titration calorimetry using a Microcal Omega VP-ITC calorimeter (MicroCal Inc., Northampton, MA). Protein was dialysed against ITC buffer (50 mM HEPES pH 7.5, 150 mM NaCl, 5 mM β-mercaptoethanol) and peptides were dissolved in the dialysis buffer. Experiments were carried out at 22 °C and involved 30 successive 10 μl injections of peptide solution into a sample cell containing protein solution. Titrations with XRCC1 peptides used peptide at 1 mM and protein at 100 μM and titrations with XRCC4 peptides used peptide at 300 μm and protein at 30 μM. Heats of dilution were subtracted and binding isotherms were plotted and analysed with MicroCal origin version 7.0, assuming a single-site binding model.

Assay [2] has as its target T3, wild-type APLF FHA domain (Homo sapiens, UniProt Q8IW19).
T3 construct: APLF residues 1–106; GST (pGEX-6P-1) (N, cleaved yes); made in house; host or cells: Escherichia coli Rosetta2 (DE3)
T3 sequence (Q8IW19 1-106): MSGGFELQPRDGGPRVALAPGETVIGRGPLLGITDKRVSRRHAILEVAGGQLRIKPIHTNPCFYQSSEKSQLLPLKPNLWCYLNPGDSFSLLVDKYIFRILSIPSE
Put plainly: ITC of wild-type APLF FHA domain with XRCC1 and XRCC4 phosphopeptides. The following applies: 22 °C, 50 mM HEPES pH 7.5, 150 mM NaCl, 5 mM β-mercaptoethanol, peptide in syringe, XRCC1 peptides 1 mM into 100 μM protein, XRCC4 peptides 300 μM into 30 μM protein, single-site model, representative of triplicate.
Text: as §1
For expression, the pGEX-6P-1/aprataxin-FHA constructs were transformed into Escherichia coli strain BL21 (DE3) and the pGEX-6P-1/APLF-FHA constructs transformed into the strain Rosetta2 (DE3). Cells were grown in LB at 37 °C to an A600 of 0.5, induced with 0.4 mM isopropyl 1-thio-β-D-galactopyranoside and incubated at 18 °C for a further 16 h before harvesting. […]
Phosphopeptides based on the XRCC1 sequence 515-YAGSTDENTDSEEHQ-529 and the XRCC4 sequence 229-YDESTDEES-237 were synthesised with amidated C-termini to avoid potential end-effects of a free carboxy-terminus by Dr. W. Mawby (University of Bristol), purified by HPLC and characterised by mass spectrometry. FHA-phosphopeptide binding was quantified by isothermal titration calorimetry using a Microcal Omega VP-ITC calorimeter (MicroCal Inc., Northampton, MA). […] Heats of dilution were subtracted and binding isotherms were plotted and analysed with MicroCal origin version 7.0, assuming a single-site binding model.

Assay [3] concerns the target T4, R42A Mutant of aprataxin FHA domain (Homo sapiens, UniProt Q7Z2E3, R56A).
T4 construct: aprataxin residues 1–105; GST (pGEX-6P-1) (N, cleaved yes); made in house; host or cells: Escherichia coli BL21 (DE3)
Put plainly: ITC of R42A mutant of aprataxin FHA domain with XRCC1 and XRCC4 phosphopeptides. Conditions: 22 °C, 50 mM HEPES pH 7.5, 150 mM NaCl, 5 mM β-mercaptoethanol, single-site model.
Text: as §1, §2, §3

Assay [4] concerns the target T5, K38A Mutant of aprataxin FHA domain (Homo sapiens, UniProt Q7Z2E3, K52A).
T5 construct: aprataxin residues 1–105; GST (pGEX-6P-1) (N, cleaved yes); made in house; host or cells: Escherichia coli BL21 (DE3)
Put plainly: ITC of K38A mutant of aprataxin FHA domain with XRCC1 and XRCC4 phosphopeptides. Conditions: 22 °C, 50 mM HEPES pH 7.5, 150 mM NaCl, 5 mM β-mercaptoethanol, single-site model.
Text: as §1, §2, §3

Where two headings read alike, the source gives them in different places. Square brackets hold non-standard residues; d marks the D form. Peptide text beside a SMILES is read from it. pT = C[C@@H](OP(=O)(O)O)[C@H](N)C(=O)O; pS = N[C@@H](COP(=O)(O)O)C(=O)O

T1 sequence (Q7Z2E3 15-119): as the sequence (Q7Z2E3 15-119) above
T4 sequence (Q7Z2E3 15-119 R56A): as the sequence (Q7Z2E3 15-119) above, with R42A counted along it
T5 sequence (Q7Z2E3 15-119 K52A): as the sequence (Q7Z2E3 15-119) above, with K38A counted along it

`C[C@H](NC(=O)[C@@H](N)Cc1ccc(O)cc1)C(=O)NCC(=O)N[C@@H](COP(=O)(O)O)C(=O)N[C@H](C(=O)N[C@@H](CC(=O)O)C(=O)N[C@@H](CCC(=O)O)C(=O)N[C@@H](CC(N)=O)C(=O)N[C@H](C(=O)N[C@@H](CC(=O)O)C(=O)N[C@@H](CO)C(=O)N[C@@H](CCC(=O)O)C(=O)N[C@@H](CCC(=O)O)C(=O)N[C@@H](Cc1c[nH]cn1)C(=O)N[C@@H](CCC(N)=O)C(N)=O)[C@@H](C)OP(=O)(O)O)[C@@H](C)OP(=O)(O)O` [YAGpSpTDENpTDSEEHQ] (H-YAG[pS][pT]DEN[pT]DSEEHQ-NH2): the Kd on aprataxin FHA domain (20 mM Na Acetate pH 5.8, 50 mM NaCl, 2 mM DTT, 92 µM 15N aprataxin FHA, 2 mM peptide stock, read-out: Kd from weighted chemical shift of residue Asp37) worked out at 100 nM; on aprataxin FHA domain (pH 5.8, 92 µM aprataxin FHA, read-out: Kd from weighted chemical shift of residue Gln46) it was 100 nM; at aprataxin FHA domain (pH 5.8, 92 µM aprataxin FHA, read-out: Kd from weighted chemical shift of residue Val45), 600 nM; at aprataxin FHA domain (pH 5.8, 92 µM aprataxin FHA, read-out: Kd from weighted chemical shift of residue Val61), 100 nM; on aprataxin FHA domain (pH 5.8, 92 µM aprataxin FHA, read-out: Kd from weighted chemical shift of residue Val63) it was 500 nM; at aprataxin FHA domain (pH 5.8, mean of individual Kds of D37, V45, Q46, V61, V63, read-out: Kd, Mean (SEM) over five residues (apparent Kd)), 300 nM. Further, the Kd was < 1000 nM on aprataxin FHA domain (pH 5.8, tighter binders not well defined due to high protein concentration, read-out: overall apparent affinity (Kdapp) estimated from NMR titrations); 500 ± 50 nM in assay [1]; 11 ± 0.5 µM in assay [2]; 28.7 ± 1.9 µM in assay [3]; 4.4 ± 0.3 µM in assay [4].
